For the assay, the target named is T1, LRRK2 (G2019S) (Homo sapiens, UniProt Q5S007, G2019S).
T1 construct: Recombinant GST-LRRK2 (delta970), purified from baculovirus infected insect cells (SF9); GST (N); host or cells: baculovirus infected insect cells (SF9)
The assay can be described thus: LRRK2 inhibition, radiometric kinase assay with recombinant GST-LRRK2 (delta970) and peptide substrate. To be noted: GST-LRRK2 (delta970) G2019S 30 nM, ATP ~52 μM (Km), 30 min at 30° C. The class given is biochemical. Here is the method: Compounds were assessed for inhibition of LRRK2 inhibition using the following procedure.
Recombinant GST-LRRK2 (delta970), purified from baculovirus infected insect cells (SF9), at least 90% pure and either wild-type sequence or bearing the pathogenic G2019S mutation, was combined into a kinase buffer at 30 nM concentration. Kinase buffer consists of 50 mM Tris HCl pH 7.4, 1 mM EDTA, and 50 μM peptide substrate (amino acid sequence […]). Experimental compounds or control (no compound) were added at desired concentrations in DMSO and water, where final concentration of DMSO in kinase reactions was 0.1% for all drug concentrations. Activation buffer that consists of a final concentration in the reactions of 10 mM MgCl2 and ATP (˜92 μM for WT-LRRK2 reactions and ˜52 μM for G2019S-LRRK2, which represent respective Km ATP concentrations) were added to each reaction, in addition to 0.5 μCi of gamma-32-P-dATP per reaction. Reactions were incubated at 1400 RPM at 30° C. for 30 min. and then spotted in triplicate directly onto a slot-blot apparatus fitted with phospho-cellulose paper and allowed to dry. Each slot was then washed with 10 mM phosphoric acid buffer until beta-radiation could not be detected in eluted wash buffer, usually ˜1 mL per slot. Paper within each slot were excised and radiation measured by liquid scintillation.

Molecules are shown by their SMILES.

T1 sequence (Q5S007 970-2527 G2019S limits assumed): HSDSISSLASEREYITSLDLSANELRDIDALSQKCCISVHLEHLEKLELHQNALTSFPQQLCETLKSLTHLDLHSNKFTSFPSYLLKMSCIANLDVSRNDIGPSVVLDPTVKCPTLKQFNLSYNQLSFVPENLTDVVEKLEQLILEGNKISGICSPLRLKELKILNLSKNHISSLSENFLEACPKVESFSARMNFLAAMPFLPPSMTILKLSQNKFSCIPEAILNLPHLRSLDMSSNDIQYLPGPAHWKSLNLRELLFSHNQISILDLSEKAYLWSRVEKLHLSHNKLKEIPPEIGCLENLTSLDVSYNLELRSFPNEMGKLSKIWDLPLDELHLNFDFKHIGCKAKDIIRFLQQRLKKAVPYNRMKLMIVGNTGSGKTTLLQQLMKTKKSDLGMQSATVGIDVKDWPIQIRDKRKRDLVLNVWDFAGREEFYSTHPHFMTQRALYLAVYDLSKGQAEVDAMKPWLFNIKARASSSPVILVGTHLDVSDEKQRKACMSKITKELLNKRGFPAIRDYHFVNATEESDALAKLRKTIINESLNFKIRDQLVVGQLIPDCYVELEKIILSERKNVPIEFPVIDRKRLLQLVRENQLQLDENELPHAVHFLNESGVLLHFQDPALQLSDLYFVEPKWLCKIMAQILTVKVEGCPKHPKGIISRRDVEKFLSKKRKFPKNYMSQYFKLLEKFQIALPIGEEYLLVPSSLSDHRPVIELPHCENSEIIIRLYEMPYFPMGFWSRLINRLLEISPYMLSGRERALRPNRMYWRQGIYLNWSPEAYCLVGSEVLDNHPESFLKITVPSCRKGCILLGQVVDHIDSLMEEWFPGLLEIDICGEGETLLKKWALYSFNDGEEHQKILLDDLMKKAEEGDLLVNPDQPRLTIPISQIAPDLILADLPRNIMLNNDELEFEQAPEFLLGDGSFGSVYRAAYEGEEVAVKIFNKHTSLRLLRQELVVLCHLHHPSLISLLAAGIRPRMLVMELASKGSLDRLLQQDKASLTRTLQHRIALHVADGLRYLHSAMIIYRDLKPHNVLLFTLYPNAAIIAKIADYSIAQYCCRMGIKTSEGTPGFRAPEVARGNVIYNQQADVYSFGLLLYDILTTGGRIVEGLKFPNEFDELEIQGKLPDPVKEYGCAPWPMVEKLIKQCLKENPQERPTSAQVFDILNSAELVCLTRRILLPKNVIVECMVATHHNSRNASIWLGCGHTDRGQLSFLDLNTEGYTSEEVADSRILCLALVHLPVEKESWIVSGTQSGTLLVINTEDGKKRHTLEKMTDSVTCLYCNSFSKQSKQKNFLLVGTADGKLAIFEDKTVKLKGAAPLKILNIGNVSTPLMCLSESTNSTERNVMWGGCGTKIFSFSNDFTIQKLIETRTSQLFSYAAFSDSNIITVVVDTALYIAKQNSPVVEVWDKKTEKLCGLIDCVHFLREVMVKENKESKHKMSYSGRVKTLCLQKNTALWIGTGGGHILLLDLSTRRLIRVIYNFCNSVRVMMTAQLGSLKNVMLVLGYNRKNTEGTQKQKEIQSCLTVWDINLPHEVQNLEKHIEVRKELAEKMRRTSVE

As to `CCC(Oc1ccc2nnc(-c3cccs3)n2n1)C(=O)N1CCCCC1` (stereo not shown) [Example 85, 1-(piperidin-1-yl)-2-((3-(thiophen-2-yl)-[1,2,4]triazolo[4,3-b]pyridazin-6-yl)oxy)butan-1-one], the IC50 was at least 5000 nM. Regarding `NC(=O)CSc1ccc2nnc(C3CCCC3)n2n1` [Example 15, 2-((3-cyclopentyl-[1,2,4]triazolo[4,3-b]pyridazin-6-yl)thio)acetamide], the IC50 fell in the range of 1000 to 5000 nM. For `CCOC(=O)C(CC)Sc1ccc2nnc(-c3ccccc3OC)n2n1` (stereo not shown) [Example 68, ethyl 2-((3-(2-methoxyphenyl)-[1,2,4]triazolo[4,3-b]pyridazin-6-yl)thio)butanoate], the IC50 is at least 5000 nM. As to `Cc1ccc(-c2nnc3ccc(SCC(N)=O)nn23)s1` [Example 49, 2-((3-(5-methylthiophen-2-yl)-[1,2,4]triazolo[4,3-b]pyridazin-6-yl)thio)acetamide], the IC50 lay within 100 to 1000 nM.

With `CCC(Sc1ccc2nnc(-c3cccs3)n2n1)C(=O)N1CCC1` (stereo not shown) [Example 114, 1-(azetidin-1-yl)-2-((3-(thiophen-2-yl)-[1,2,4]triazolo[4,3-b]pyridazin-6-yl)thio)butan-1-one], the IC50 is 100 to 1000 nM. For `CCC(Sc1ccc2nnc(-c3ccc(C)s3)n2n1)C(=O)N1CCCCC1` (stereo not shown) [Example 59, 2-((3-(5-methylthiophen-2-yl)-[1,2,4]triazolo[4,3-b]pyridazin-6-yl)thio)-1-(piperidin-1-yl)butan-1-one], the IC50 was at least 5000 nM.

Regarding `CCC(Sc1ccc2nnc(-c3ccc(F)cc3)n2n1)C(=O)Nc1nccs1` (stereo not shown) [Example 7, 2-((3-(4-fluorophenyl)-[1,2,4]triazolo[4,3-b]pyridazin-6-yl)thio)-N-(thiazol-2-yl)butanamide], the IC50 is at least 5000 nM. As to `CCC(Sc1ccc2nnc(-c3ccc(OC)cc3)n2n1)C(N)=O` (stereo not shown) [Example 66, 2-((3-(4-methoxyphenyl)-[1,2,4]triazolo[4,3-b]pyridazin-6-yl)thio)butanamide], the IC50 was 100 to 1000 nM. As for `CCC(Sc1ccc2nnc(-c3cccs3)n2n1)C(=O)Nc1ccccc1` (stereo not shown) [Example 86, N-phenyl-2-((3-(thiophen-2-yl)-[1,2,4]triazolo[4,3-b]pyridazin-6-yl)thio)butanamide], the IC50 is at least 5000 nM.

Turning to `CC(Sc1ccc2nnc(-c3nccs3)n2n1)C(=O)O` (stereo not shown) [Example 124, 2-((3-(thiazol-2-yl)-[1,2,4]triazolo[4,3-b]pyridazin-6-yl)thio)propanoic acid], the IC50 lay within 100 to 1000 nM. With `CCOC(=O)C(CC)Sc1ccc2nnc(-c3ccc(F)cc3)n2n1` (stereo not shown) [Example 1, ethyl 2-((3-(4-fluorophenyl)-[1,2,4]triazolo[4,3-b]pyridazin-6-yl)thio)butanoate], the IC50 is at least 5000 nM. With `CC(Sc1ccc2nnc(-c3cccs3)n2n1)C(=O)N1CCCC1` (stereo not shown) [Example 105, 1-(pyrrolidin-1-yl)-2-((3-(thiophen-2-yl)-[1,2,4]triazolo[4,3-b]pyridazin-6-yl)thio)propan-1-one], the IC50 is below 100 nM. Next, `CCC(Sc1ccc2nnc(-c3ccc(F)cc3)n2n1)C(=O)N1CCCC1` (stereo not shown) [Example 8, 2-((3-(4-fluorophenyl)-[1,2,4]triazolo[4,3-b]pyridazin-6-yl)thio)-1-(pyrrolidin-1-yl)butan-1-one]: 100 to 1000 nM.

As for `CC(Sc1ccc2nnc(-c3cscn3)n2n1)C(=O)N1CCCC1` (stereo not shown) [Example 111, 1-(pyrrolidin-1-yl)-2-((3-(thiazol-4-yl)-[1,2,4]triazolo[4,3-b]pyridazin-6-yl)thio)propan-1-one], the IC50 fell in the range of 100 to 1000 nM.

In the case of `NC(=O)CSc1ccc2nnc(-c3csc4ccccc34)n2n1` [Example 35, 2-((3-(benzo[b]thiophen-3-yl)-[1,2,4]triazolo[4,3-b]pyridazin-6-yl)thio)acetamide], the IC50 lay within 1000 to 5000 nM. On to `NC(=O)CSc1ccc2nnc(-c3ccc(F)cc3)n2n1` [Example 19, 2-((3-(4-fluorophenyl)-[1,2,4]triazolo[4,3-b]pyridazin-6-yl)thio)acetamide], for which the IC50 was in the range of 1000 to 5000 nM.

For `CCOC(=O)CSc1ccc2nnc(-c3ccncc3)n2n1` [Example 2, ethyl 2-((3-(pyridin-4-yl)-[1,2,4]triazolo[4,3-b]pyridazin-6-yl)thio)acetate], the IC50 was at least 5000 nM. Regarding `NC(=O)CSc1ccc2nnc(-c3cccs3)n2n1` [Example 3, 2-((3-(thiophen-2-yl)-[1,2,4]triazolo[4,3-b]pyridazin-6-yl)thio)acetamide], the IC50 lay in the range of 100 to 1000 nM. Next, `NC(=O)CSc1ccc2nnc(-c3cc4ccccc4o3)n2n1` [Example 32, 2-((3-(benzofuran-2-yl)-[1,2,4]triazolo[4,3-b]pyridazin-6-yl)thio)acetamide]: at least 5000 nM; `CCC(Sc1ccc2nnc(-c3nccs3)n2n1)C(=O)O` (stereo not shown) [Example 33, 2-((3-(thiazol-2-yl)-[1,2,4]triazolo[4,3-b]pyridazin-6-yl)thio)butanoic acid]: 100 to 1000 nM.

Turning to `CCC(Sc1ccc2nnc(-c3ccc(F)cc3)n2n1)C(=O)O` (stereo not shown) [Example 6, 2-((3-(4-fluorophenyl)-[1,2,4]triazolo[4,3-b]pyridazin-6-yl)thio)butanoic acid], the IC50 lay in the range of 100 to 1000 nM. In the case of `CCC(Sc1ccc2nnc(-c3cccs3)n2n1)C(=O)NC1CCCCC1` (stereo not shown) [Example 52, N-cyclohexyl-2-((3-(thiophen-2-yl)-[1,2,4]triazolo[4,3-b]pyridazin-6-yl)thio)butanamide], the IC50 lay in the range of 100 to 1000 nM. For the compound `CC(Sc1ccc2nnc(-c3cscn3)n2n1)C(=O)N1CCCCC1` (stereo not shown) [Example 110, 1-(piperidin-1-yl)-2-((3-(thiazol-4-yl)-[1,2,4]triazolo[4,3-b]pyridazin-6-yl)thio)propan-1-one], the IC50 is 100 to 1000 nM. `CC(C)(Sc1ccc2nnc(-c3cccs3)n2n1)C(=O)N1CCCC1` [Example 107, 2-methyl-1-(pyrrolidin-1-yl)-2-((3-(thiophen-2-yl)-[1,2,4]triazolo[4,3-b]pyridazin-6-yl)thio)propan-1-one]: the IC50 lay in the range of 1000 to 5000 nM. As to `O=C(CSc1ccc2nnc(-c3cccs3)n2n1)N1CCOCC1` [Example 24, 1-morpholino-2-((3-(thiophen-2-yl)-[1,2,4]triazolo[4,3-b]pyridazin-6-yl)thio)ethanone], the IC50 is 100 to 1000 nM. Take `CC(Sc1ccc2nnc(-c3ccnn3C)n2n1)C(=O)N1CCCCC1` (stereo not shown) [Example 112, 2-((3-(1-methyl-1H-pyrazol-5-yl)-[1,2,4]triazolo[4,3-b]pyridazin-6-yl)thio)-1-(piperidin-1-yl)propan-1-one]: the IC50 is at least 5000 nM. Consider `CCc1ccc(-c2cnc3ccc(SC(CC)C(=O)O)nn23)s1` (stereo not shown) [Example 88, 2-((3-(5-ethylthiophen-2-yl)imidazo[1,2-b]pyridazin-6-yl)thio)butanoic acid], for which the IC50 was in the range of 1000 to 5000 nM. For `Cc1scc(-c2nnc3ccc(SCC(=O)O)nn23)c1-c1ccccc1` [Example 39, 2-((3-(5-methyl-4-phenylthiophen-3-yl)-[1,2,4]triazolo[4,3-b]pyridazin-6-yl)thio)acetic acid] the value was at least 5000 nM.

Regarding `O=C(CSc1ccc2nnc(-c3cccs3)n2n1)Nc1nccs1` [Example 23, N-(thiazol-2-yl)-2-((3-(thiophen-2-yl)-[1,2,4]triazolo[4,3-b]pyridazin-6-yl)thio)acetamide], the IC50 was in the range of 100 to 1000 nM. As to `O=C(O)CSc1ccc2nnc(-c3cccs3)n2n1` [Example 27, 2-((3-(thiophen-2-yl)-[1,2,4]triazolo[4,3-b]pyridazin-6-yl)thio)acetic acid], the IC50 was at least 5000 nM. For `O=C(CSc1ccc2nnc(-c3ccc(F)cc3)n2n1)Nc1nccs1` [Example 43, 2-((3-(4-fluorophenyl)-[1,2,4]triazolo[4,3-b]pyridazin-6-yl)thio)-N-(thiazol-2-yl)acetamide], the half-inhibitory concentration (IC50) is at least 5000 nM.

With `NC(=O)CSc1ccc2nnc(-c3cc4ccccc4s3)n2n1` [Example 29, 2-((3-(benzo[b]thiophen-2-yl)-[1,2,4]triazolo[4,3-b]pyridazin-6-yl)thio)acetamide], the half-inhibitory concentration (IC50) was at least 5000 nM. As for `CCC(Sc1ccc2nnc(-c3ccc(C(F)(F)F)cc3)n2n1)C(=O)O` (stereo not shown) [Example 53, 2-((3-(4-(trifluoromethyl)phenyl)-[1,2,4]triazolo[4,3-b]pyridazin-6-yl)thio)butanoic acid], the IC50 is at least 5000 nM. Regarding `CCC(Sc1ccc2nnc(-c3cccc(F)c3)n2n1)C(=O)O` (stereo not shown) [Example 56, 2-((3-(3-fluorophenyl)-[1,2,4]triazolo[4,3-b]pyridazin-6-yl)thio)butanoic acid], the IC50 lay in the range of 100 to 1000 nM. As to `CCOC(=O)C(CC)Sc1ccc2nnc(-c3cccc(OC)c3)n2n1` (stereo not shown) [Example 71, ethyl 2-((3-(3-methoxyphenyl)-[1,2,4]triazolo[4,3-b]pyridazin-6-yl)thio)butanoate], the IC50 lay within 1000 to 5000 nM. For the compound `CCC(Sc1ccc2nnc(-c3ccc(F)cc3)n2n1)C(=O)Nc1ccccc1C(F)(F)F` (stereo not shown) [Example 14, 2-((3-(4-fluorophenyl)-[1,2,4]triazolo[4,3-b]pyridazin-6-yl)thio)-N-(2-(trifluoromethyl)phenyl)butanamide], the IC50 was at least 5000 nM.

For the compound `NC(=O)CSc1ccc2nnc(C3CCCCC3)n2n1` [Example 10, 2-((3-cyclohexyl-[1,2,4]triazolo[4,3-b]pyridazin-6-yl)thio)acetamide], the IC50 is at least 5000 nM.

Values taken from patent publication US9187484B2 (Southern Research Institute, priority 2012, dated 2015).
